Source: US5084082A, “Soybean plants with dominant selectable trait for herbicide resistance” (priority 1990, dated 1992)

Experiments:
Type in all cases: in vivo, soybean
[1] = test system: mutant line W28; test: Test B postemergence cross resistance test; conditions: Glycine max, post-emergence; for mean % injury to soybean at 16 g/ha: W28, 16 g/ha postemergence; for mean % injury to soybean at 64 g/ha: W28, 64 g/ha postemergence
Source text: (§1) In the second postemergence test, six true-breeding resistant mutant lines (W4, W17, W19, W20, W23, and W28) were compared to Williams 82 for cross resistance to a broad range of ALS inhibitors including eight sulfonylureas and three imidazolinones. Two seeds were planted in each 10 cm pot and allowed to grow to the second trifoliolate stage. Pots were not thinned back if both plants were at the proper stage. For each of 11 herbicides, two rates (Table VII) were selected based on previous data: the low rate was expected to cause significant injury (but not death) to Williams 82 and the high rate was expected to severely injure or kill Williams 82. All but a few line x rate treatments were replicated twice.
(§2) In both postemergence tests, plants were returned to the greenhouse after treatment and provided with ample light, moisture, and nutrients to support healthy plant growth. Two to three ratings per pot were recorded over a three-week period and averaged to obtain a single value for each pot For each herbicide, analysis of variance on injury ratings was performed separately. Fisher's least significant difference (LSD) was used to determine the significance of line mean differences at each herbicide rate using the 95% level of confidence. […]

[2] = test system: mutant line W19; test: Test B postemergence cross resistance test; conditions: Glycine max, post-emergence; for percent soybean crop injury at 16 g/ha: W19, 16 g/ha postemergence; for percent soybean crop injury at 64 g/ha: W19, 64 g/ha postemergence
Source text: as §1, §2

[3] = test system: mutant line W23; test: Test B postemergence cross resistance test; conditions: Glycine max, post-emergence; for percent soybean injury at 16 g/ha: W23, 16 g/ha postemergence; for percent soybean injury at 64 g/ha: W23, 64 g/ha postemergence
Source text: as §1, §2

[4] = test system: Williams 82; test: Test B postemergence cross resistance test; conditions: Glycine max, post-emergence, read-out: mean % injury
Source text: as §1, §2

[5] = test system: mutant line W4; test: Test B postemergence cross resistance test; conditions: Glycine max, post-emergence; for % crop injury at 16 g/ha: W4, 16 g/ha postemergence; for % crop injury at 64 g/ha: W4, 64 g/ha postemergence
Source text: as §1, §2

[6] = test system: mutant line W17; test: Test B postemergence cross resistance test; conditions: Glycine max, post-emergence; for soybean crop injury (%) at 16 g/ha: W17, 16 g/ha postemergence; for soybean crop injury (%) at 64 g/ha: W17, 64 g/ha postemergence
Source text: as §1, §2

[7] = test system: W20; test: Test C preemergence (soil) sulfonylurea application; conditions: 19 days after treatment
Source text: (§3) W20, a line homozygous for a dominant sulfonylurea-resistance mutation, was compared to Williams 82 in terms of response to preemergence application of three sulfonylurea herbicides. The experimental unit consisted of a single 18 cm pot filled with soil (Sassafras loamy sand with 0.8% organic matter and pH 6.7) in which 6 seeds of a given soybean line were planted 2 cm deep. After planting, each pot was sprayed (using a conveyor belt spray apparatus to emulate field application) with one of 22 different treatments including a check sprayed with AGWT (90% acetone, 4% glycerol, 4% water, 2% Tween-20), and 21 different herbicide treatments using AGWT as a carrier. The herbicide treatments included 7 different concentrations (Table IX) each of three sulfonyl-ureas: Compound 5, Compound 4, and Compound 1. Each herbicide x line treatment was replicated three times. After herbicide treatment, pots were transferred to a greenhouse and arranged in a randomized complete block design. Nineteen days after treatment, each pot was rated visually for herbicide injury using the scale described previously. For each herbicide, analysis of variance on injury ratings was performed separately. Fisher's least significant difference (LSD) was used to determine the significance of line mean differences at each rate using the 95% level of confidence.

[8] = test system: Williams 82; test: as above; conditions: 19 days after treatment
Source text: as §3

[9] = test system: mutant line W20; test: Test B postemergence cross resistance test; conditions: Glycine max, post-emergence; for percent crop injury at 16 g/ha: W20, 16 g/ha postemergence; for percent crop injury at 64 g/ha: W20, 64 g/ha postemergence
Source text: as §1
In both postemergence tests, plants were returned to the greenhouse after treatment and provided with ample light, moisture, and nutrients to support healthy plant growth. Two to three ratings per pot were recorded over a three-week period and averaged to obtain a single value for each pot For each herbicide, analysis of variance on injury ratings was performed separately. Fisher's least significant difference (LSD) was used to determine the significance of line mean differences at each herbicide rate using the 95% level of confidence.

[10] = test system: mutant W20; test: Postemergence herbicide spray test of W4-4 (Table VII-A); conditions: two weeks after treatment
Method: (§4) To investigate this hypothesis, a postemergence herbicide spray test was conducted to compare the reaction of W4-4 to both W20 and wild-type Williams. The applicant was particularly interested in the resistance of W4-4 to herbicide treatments that were injurious to both Williams and W20 in a previous test (Table VII). […] Twenty-four plants each of W4-4, W20, and Williams were planted in separate 10 cm pots and allowed to grow to the second trifoliolate stage. Each pot constituted a single experimental unit receiving a single herbicide treatment. Herbicide treatments (Table VIIA) were applied as described for the first postemergence test and were replicated twice. Control plants were sprayed with the spray carrier solution only (water with 0.25% X77 surfactant). At two weeks after treatment, each plant was rated for % herbicide injury as described in Table VIII. Analysis of variance on injury ratings was performed separately for each herbicide to calculate treatment means and standard errors. Fisher's least significant difference (LSD) was used to determine the significance of line means differences at each herbicide rate using the 95% level of confidence. […]

[11] = test system: Mutant W4-4; test: as above; conditions: two weeks after treatment
Method: as §4

[12] = test system: Williams 82; test: as above; conditions: two weeks after treatment
Method: as §4

Structure (SMILES): COC(=O)c1ccccc1S(=O)(=O)NC(=O)Nc1nc(C)cc(C)n1 [Compound 4, Methyl 2-[[[[(4,6-dimethyl-2-pyrimidinyl)amino]carbonyl]amino]sulfonyl]benzoate]
- mean % injury to soybean at 0.5 g/ha ([1]; W28, 0.5 g/ha postemergence): 0%
- mean % injury to soybean at 2 g/ha ([1]; W28, 2 g/ha postemergence): 18%
- percent soybean crop injury at 0.5 g/ha ([2]; W19, 0.5 g/ha postemergence): 3%
- percent soybean crop injury at 2 g/ha ([2]; W19, 2 g/ha postemergence): 18%
- percent soybean injury at 0.5 g/ha ([3]; W23, 0.5 g/ha postemergence): 8%
- percent soybean injury at 2 g/ha ([3]; W23, 2 g/ha postemergence): 11%
- pest or weed control at 0.5 g/ha [4]: 58%
- pest or weed control at 2 g/ha [4]: 95%
- % crop injury at 0.5 g/ha ([5]; W4, 0.5 g/ha postemergence): 10%
- % crop injury at 2 g/ha ([5]; W4, 2 g/ha postemergence): 8%
- soybean crop injury (%) at 0.5 g/ha ([6]; W17, 0.5 g/ha postemergence): 3%
- soybean crop injury (%) at 2 g/ha ([6]; W17, 2 g/ha postemergence): 0%
- % Injury ([7]; W20, 0.3 g/ha preemergence): 0%
- % Injury ([7]; W20, 1 g/ha preemergence): 0%
- % Injury ([7]; W20, 3 g/ha preemergence): 0%
- % Injury ([7]; W20, 10 g/ha preemergence): 17%
- % Injury ([7]; W20, 30 g/ha preemergence): 68%
- % Injury ([7]; W20, 100 g/ha preemergence): 90%
- % Injury ([7]; W20, 300 g/ha preemergence): 95%
- % Injury ([8]; WM 82, 0.3 g/ha preemergence): 33%
- % Injury ([8]; WM 82, 1 g/ha preemergence): 55%
- % Injury ([8]; WM 82, 3 g/ha preemergence): 88%
- % Injury ([8]; WM 82, 10 g/ha preemergence): 97%
- % Injury ([8]; WM 82, 30 g/ha preemergence): 98%
- % Injury ([8]; WM 82, 100 g/ha preemergence): 100%
- % Injury ([8]; WM 82, 300 g/ha preemergence): 100%
- percent crop injury at 0.5 g/ha ([9]; W20, 0.5 g/ha postemergence): 0%
- percent crop injury at 2 g/ha ([9]; W20, 2 g/ha postemergence): 6%

Structure (SMILES): CCOC(=O)c1ccccc1S(=O)(=O)NC(=O)Nc1nc(Cl)cc(OC)n1 [Compound 5, Ethyl 2[[[[(4-chloro-6-methoxy-2-pyrimidinyl)amino]carbonyl]amino]sulfonyl]benzoate]
- mean % injury to soybean at 16 g/ha [1]: 0%
- mean % injury to soybean at 64 g/ha [1]: 0%
- percent soybean crop injury at 16 g/ha [2]: 0%
- percent soybean crop injury at 64 g/ha [2]: 20%
- percent soybean injury at 16 g/ha [3]: 0%
- percent soybean injury at 64 g/ha [3]: 10%
- pest or weed control at 16 g/ha [4]: 40%
- pest or weed control at 64 g/ha [4]: 58%
- % crop injury at 16 g/ha [5]: 6%
- % crop injury at 64 g/ha [5]: 0%
- soybean crop injury (%) at 16 g/ha [6]: 0%
- soybean crop injury (%) at 64 g/ha [6]: 0%
- % Injury ([7]; W20, 1 g/ha preemergence): 0%
- % Injury ([7]; W20, 3 g/ha preemergence): 0%
- % Injury ([7]; W20, 10 g/ha preemergence): 0%
- % Injury ([7]; W20, 30 g/ha preemergence): 3%
- % Injury ([7]; W20, 100 g/ha preemergence): 10%
- % Injury ([7]; W20, 300 g/ha preemergence): 15%
- % Injury ([7]; W20, 1000 g/ha preemergence): 35%
- % Injury ([8]; WM 82, 1 g/ha preemergence): 0%
- % Injury ([8]; WM 82, 3 g/ha preemergence): 0%
- % Injury ([8]; WM 82, 10 g/ha preemergence): 0%
- % Injury ([8]; WM 82, 30 g/ha preemergence): 15%
- % Injury ([8]; WM 82, 100 g/ha preemergence): 47%
- % Injury ([8]; WM 82, 300 g/ha preemergence): 68%
- % Injury ([8]; WM 82, 1000 g/ha preemergence): 92%
- percent crop injury at 16 g/ha [9]: 0%
- percent crop injury at 64 g/ha [9]: 0%

Structure (SMILES): COc1cc(OC)nc(NC(=O)NS(=O)(=O)c2ncccc2C(=O)N(C)C)n1 [Compound 6, 2-[[[[(4,6-dimethoxy-2-pyrimidinyl)amino]carbonyl]amino]sulfonyl]N,N-dimethyl-3-pyridinecarboxamide]
- mean % injury to soybean at 16 g/ha [1]: 0%
- mean % injury to soybean at 64 g/ha [1]: 45%
- percent soybean crop injury at 16 g/ha [2]: 8%
- percent soybean crop injury at 64 g/ha [2]: 48%
- percent soybean injury at 16 g/ha [3]: 5%
- percent soybean injury at 64 g/ha [3]: 54%
- pest or weed control at 16 g/ha [4]: 25%
- pest or weed control at 64 g/ha [4]: 66%
- % crop injury at 16 g/ha [5]: 4%
- % crop injury at 64 g/ha [5]: 43%
- soybean crop injury (%) at 16 g/ha [6]: 0%
- soybean crop injury (%) at 64 g/ha [6]: 40%
- percent crop injury at 16 g/ha [9]: 3%
- percent crop injury at 64 g/ha [9]: 38%
- mean % injury ([10]; W20, 64 g/ha postemergence): 10%
- mean % injury ([10]; W20, 125 g/ha postemergence): 28%
- mean % injury ([11]; W4-4, 64 g/ha postemergence): 0%
- mean % injury ([11]; W4-4, 125 g/ha postemergence): 8%
- mean % injury ([12]; WM82, 64 g/ha postemergence): 60%
- mean % injury ([12]; WM82, 125 g/ha postemergence): 68%
